Results on 5 compounds are retold here after US20240197738A1, “COMPOUND 7AI IN TREATING EWING SARCOMA BY INHIBITING OTUD7A” (The University of North Carolina at Chapel Hill, priority 2021, published 2024).

Holding throughout (format): cell-based, human
In experiment [1] the test system is EWS-FLI1 mRNA. Put plainly: RT-PCR of EWS-FLI1 mRNA levels. How it is done: Cells were isolated by dissociation with 0.05% Trypsin, followed by media quenching. The cells were spun down at 300×rcf for 5 minutes. The media was aspirated, the pellet was suspended with 1×PBS, and then the cells were spun down again. The PBS was aspirated. RNA extraction was performed with an RNA extraction kit (BioBasic BS584). The final elution step was done with 50 μL of RNAse-free water. The […] with the NanoDrop OneC (Thermo Fisher Scientific). Three biological replicates were performed for RNA extraction. Quartile analysis was done to exclude outliers and significance was determined by one-way ANOVA tests.

The test system of experiment [2] is EWS-FLI1. Put plainly: Immunoblot of EWS-FLI1 protein abundance in cells. Particulars: for SPOP-mediated decrease of ectopically expressed EWS-FLI1: HEK293T cells, 10 μM MG132 or 1 μM MLN4924 overnight (FIG. 1G). In general terms: A western blot detects proteins with antibodies after separation by electrophoresis.
Experiment [3] has as its system SPOP. The experiment can be described thus: Immunoblot of SPOP levels. Particulars: D4476 treatment. How it is done:
(§1) Cells were lysed in EBC buffer (50 mM Tris pH 7.5, 120 mM NaCl, 0.5% NP-40) or Triton X-100 buffer (50 mM Tris pH 7.5, 150 mM NaCl, 1% Triton X-100) supplemented with protease inhibitors (Complete Mini, Roche) and phosphatase inhibitors (phosphatase inhibitor cocktail set I and II, Calbiochem). The protein concentrations of whole cell lysates were measured by NanoDrop OneC using the Bio-Rad protein assay reagent as described previously. Equal amounts of whole cell lysates were resolved by SDS-PAGE and immunoblotted with indicated antibodies. For immunoprecipitations analysis, unless specified, 1000 μg lysates were incubated with the indicated antibody (1-2 μg) for 3-4 hr at 4° C. followed by 1 hr incubation with 10 μL Protein A magnetic beads (New England Biolabs). Or 1000 μg lysates containing tagged molecules were incubated with agarose beads coupled antibodies for the specific tag for 3-4 hr at 4° C. For endogenous IPs, incubation of cell lysates with antibodies was extended to overnight. The recovered immuno-complexes were washed five times with NETN buffer (20 mM Tris, pH 8.0, 100 mM NaCl, 1 mM EDTA and 0.5% NP-40) before being resolved by SDS-PAGE and immunoblotted with indicated antibodies.

Experiment [4] has as its system EWS-FLI1 binding to SPOP. Put plainly: EWS-FLI1 binding to SPOP in cells. Particulars: D4476 treatment. How it is done: as §1

Where a SMILES comes first, the peptide text is derived from it. The star is where a group is joined. Cbz = O=C(OCc1ccccc1)*

As for `NC(=O)c1ccc(-c2nc(-c3ccc4c(c3)OCCO4)c(-c3ccccn3)[nH]2)cc1` [D4476], in experiment [1] (D4476 treatment), the “EWS-FLI1 mRNA levels” value is recorded as “without significantly affecting EWS-FLI1 mRNA levels”. Besides, the EWS-FLI1 protein levels entry in experiment [2] (A673^3A KI cells, D4476 for 16 hrs (FIG. 2P)) is recorded as “not observed”; in experiment [2] (A673 parental cells, D4476 for 16 hrs (FIG. 2O)), “Increased EWS-FLI1 protein levels”. The EWS-FLI1 protein abundance result in experiment [2] (EWS502 cells (CUL3 E358Q), D4476 treatment) was “neither D4476 treatment, nor SPOP depletion increased EWS-FLI1 protein abundance”. Further, the EWS-FLI1 protein accumulation result in experiment [2] (SK-N-MC, EWS894 and MHH-ES-1 cells, D4476 for 16 hrs (FIGS. 2B-2D)) was “resulted in the accumulation of EWS-FLI1 in multiple Ewing sarcoma cells”. Further, the “effect on EWS-FLI1 levels in SPOP-depleted cells” value in experiment [2] (endogenous SPOP-depleted A673 cells, D4476 for 16 hrs (FIG. 2H)) was “attenuated”. Besides, in experiment [3], the SPOP levels entry is on record as “unaffected”. Besides, the “EWS-FLI1 binding to SPOP” value in experiment [4] is listed as “reduced EWS-FLI1 binding to SPOP”.

With `Cc1sc2c(c1C)C(c1ccc(Cl)cc1)=N[C@@H](CC(=O)OC(C)(C)C)c1nnc(C)n1-2` [JQ1], the EWS-FLI1 protein abundance entry in experiment [2] (MHH-ES-1 or A673 cells, JQ1 treatment) is “didn't change EWS-FLI1 protein abundance”.

With `CC(C)C[C@@H](C=O)NC(=O)[C@H](CC(C)C)NC(=O)[C@H](CC(C)C)NC(=O)OCc1ccccc1` [MG132] (Cbz-Leu-Leu-Leu-aldehyde), the “3A-EWS-FLI1 mutant protein response” value in experiment [2] (3A-EWS-FLI1 (S464A/S465A/S466A), MG132 treatment) is “resistance to MG132 treatment”. Further, the EWS-FLI1 protein abundance result in experiment [2] (A673 and SK-N-MC cells, 10 μM MG132 for 4 hrs) was “significantly increased EWS-FLI1 protein abundance”. In experiment [2], the “SPOP-mediated decrease of ectopically expressed EWS-FLI1” value was “blocked”. The “EWS-FLI1 protein levels following OTUD7A depletion” value in experiment [2] (tet-induced OTUD7A depletion, MG132 treatment) is “largely preserved EWS-FLI1 protein levels”.

`NS(=O)(=O)OC[C@@H]1C[C@@H](n2ccc3c(N[C@H]4CCc5ccccc54)ncnc32)C[C@@H]1O` [MLN4924]: the EWS-FLI1 protein stabilization result in experiment [2] (A673 cells, 1 μM MLN4924 overnight) is “largely stabilized EWS-FLI1”. For the same compound, the “SPOP-mediated decrease of ectopically expressed EWS-FLI1” value in experiment [2] was “blocked”.

For `Nc1cccc2c1CN(C1CCC(=O)NC1=O)C2=O` (centres unmarked) [lenalidomide], the “EWS-FLI1 mRNA levels” value in experiment [1] (lenalidomide treatment) is recorded as “without affecting EWS-FLI1 mRNA levels”. Besides, in experiment [2] (MHH-ES-1 cells, lenalidomide for 16 hrs (FIG. 2I)), the EWS-FLI1 protein abundance entry is “increased EWS-FLI1 protein abundance”.
